{
  "source": "patent US20220362174A1",
  "about": "“Use of R-enantiomer Beta2-agonists for prevent and treatment of pulmonary inflammation and inflammatory remodeling for reduced adverse effects” (priority 2019, published 2022)",
  "key": {"[1]": {"system": "OVA induced asthma mice", "assay": "Combination therapy of ipratropium with RS-, R- and S-salbutamol: airway resistance in response to methacholine", "type": "in vivo", "protocol": "OVA sensitized/challenged asthma model Mice were sensitized and challenged with ovalbumin (OVA) or normal saline. […] On days 21, 22 and 23, the mice were challenged with 1% OVA in saline (0.01 g/mL) for 20 min via. a nebulizer (PART Turbo boy). […] In vivo airway responsiveness to methacholine (Mch) was assessed on day 28 in conscious, freely moving, spontaneously breathing mice by a whole-body plethysmography (Buxco Electronics Inc.). […] Before Mch challenge, a 20 μL drug aerosol or saline was given to the mice because of the short-acting bronchodilating effect of terbutaline. The degree of bronchoconstriction was expressed as enhanced pause (Penh), a calculated dimensionless value that correlates with measurement of airway resistance, impedance, and intrapleural pressure. […] Methods used were similar as mentioned above. Nebulized aerosol of saline, Methacholine 2 mg/ml (low dose) or 10 mg/ml (high dose) were given via inhalation to OVA induced asthma mice."}, "[2]": {"system": "iNOS", "assay": "iNOS mRNA and protein levels", "type": "cell-based", "protocol": "(§1) In addition, the concentration of NO in the culture supernatant was measured by assaying the concentrations of nitrite (a stable NO breakdown product) using the Griess assay. […] To investigate (R)-salbutamol role on the level of iNOS, the mRNA and protein levels of iNOS were determined."}, "[3]": {"system": "NF-κB and MARK pathways", "assay": "NF-κB and MARK pathways, cytokines and ROS in LPS sepsis", "from_the_text": "LPS interacts with pathogen recognition receptors such as TLRs would also activate NF-κB and MARK pathways, which would further lead to an over-production of cytokines. […] The “cytokine storm” in sepsis involves in excessive release of INFs, IL-1B, IL-2,4,6,10,12, TNFa and MCP etc.\nIn sepsis, there are also over productions of chemokines such as ROS. […] This invention disclosed the similar effects of other RS-racemic, S-enantiomer or R-enantiomer beta2 agonists including: salbutamol, bambuterol, vilanterol, clenterol, salmeterol, formoterol, trantinterol and Indacaterol and other β2 agonists."}, "[4]": {"system": "LPS-induced RAW264.7 cells", "assay": "NO production (DAF-FM DA probe, Griess assay)", "type": "cell-based", "protocol": "Macrophages were treated without or with (R)/(S)-salbutamol for 1 h prior to LPS stimulation and subsequently incubated for 12 h. […] The fluorescence of the oxidized product (2′,7′-dichlorofluorescein, DCF) was assessed using an LSM710 Laser Scanning Confocal Microscope (Carl Zeiss, Jena, Germany). The concentration of NO in the culture supernatant was measured by assaying the concentrations of nitrite (a stable NO breakdown product) using the Griess assay (Beyotime, Shanghai, China), according to the manufacturer's instructions. The intracellular NO level was detected using the NO-sensitive fluorescence probe DAF-FM DA (Sigma, St. Louis, Mo., USA) (24). Cells were labeled with DAF-FM DA (10 μM) at 37° C. for 30 min and were gently washed three times with PBS. Fluorescence was detected using a LSM710 Laser Scanning Confocal Microscope (Scale bars, 100 μm) (Carl Zeiss, Jena, Germany).\nas §1"}},
  "note": "“Also recorded” adds a separate entry of the source.",
  "data": [
    {"compound": "CC(C)(C)NC[C@H](O)c1ccc(O)c(CO)c1", "note": "[R-salbutamol, (R)-Salbutamol]", "values": [
      {"measurement": "increase in airway resistant in response to methacholine (in words)", "setting": "[1]", "result": "significantly diminished"},
      {"measurement": "increase in airway resistance after treatment", "setting": "[1]; response to methacholine, OVA + Saline 445%", "result": 180, "unit": "%"},
      {"measurement": "iNOS protein levels", "setting": "[2]; LPS+ (R)-salbutamol vs LPS", "result": "same changes"},
      {"measurement": "iNOS mRNA level", "setting": "[2]; pretreated plus LPS, vs LPS", "result": "decreased; also recorded: inhibited"},
      {"measurement": "over production of inducible NO (iNO) and another ROS", "setting": "[3]; LPS sepsis", "result": "significantly prevent and inhibit"},
      {"measurement": "production or release of cytokines (cytokine storm)", "setting": "[3]; sepsis", "result": "significantly reduced"},
      {"measurement": "production/levels of NO (in words)", "setting": "[4]; LPS-induced cells", "result": "significantly decreased; also recorded: inhibited"},
      {"measurement": "decrease of the level of DAF fluorescence (intracellular NO)", "setting": "[4]; pretreated before LPS, LPS increased by 424% vs control", "result": 2.68, "unit": "fold"},
      {"measurement": "decrease of NO2- expression (Griess assay, culture supernatant)", "setting": "[4]; pretreatment before LPS, LPS increased 20.25-fold vs control", "result": 2.28, "unit": "fold"}
    ]}
  ]
}
